Experimental data taken from ChEMBL document CHEMBL1201862, “PubChem BioAssay data set” (2004).
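Step 1: Grow cells in 96-well plates. Step 2: Expose to compound for 48 hours at 5 concentrations. Step 3: Interpolate endpoints linearly; if unreached, use highest concentration. GI50 is the concentration that inhibits growth by half.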 The source made the active and inactive calls. Rule as the data show it: active = GI50 up to about 1.1 µM and inactive = higher.

What was measured:
Experiment in all cases: NCI anticancer screen, dose series, 48 h
786-0 = test system: 786-0
A498 = test system: A498
A549 = test system: A549
ACHN = test system: ACHN
BT-549 = test system: BT-549
CAKI-1 = test system: CAKI-1
CCRF-CEM = test system: CCRF-CEM
COLO 205 = test system: COLO 205
DU-145 = test system: DU-145
EKVX = test system: EKVX
HCC 2998 = test system: HCC 2998
HCT-116 = test system: HCT-116
HCT-15 = test system: HCT-15
HL-60 = test system: HL-60
HOP-62 = test system: HOP-62
HOP-92 = test system: HOP-92
HT-29 = test system: HT-29
Hs-578T = test system: Hs-578T
IGROV-1 = test system: IGROV-1
K562 = test system: K562
KM12 = test system: KM12
LOX IMVI = test system: LOX IMVI
M14 = test system: M14
MCF7 = test system: MCF7
MDA-MB-231 = test system: MDA-MB-231
MDA-MB-435 = test system: MDA-MB-435
MDA-N = test system: MDA-N
MOLT-4 = test system: MOLT-4
Malme-3M = test system: Malme-3M
NCI-H226 = test system: NCI-H226
NCI-H23 = test system: NCI-H23
NCI-H460 = test system: NCI-H460
NCI-H522 = test system: NCI-H522
NCI/ADR-RES = test system: NCI/ADR-RES
OVCAR-3 = test system: OVCAR-3
OVCAR-4 = test system: OVCAR-4
OVCAR-5 = test system: OVCAR-5
OVCAR-8 = test system: OVCAR-8
PC-3 = test system: PC-3
RPMI-8226 = test system: RPMI-8226
RXF 393 = test system: RXF 393
SF-268 = test system: SF-268
SF-295 = test system: SF-295
SF-539 = test system: SF-539
SK-MEL-28 = test system: SK-MEL-28
SK-MEL-2 = test system: SK-MEL-2
SK-MEL-5 = test system: SK-MEL-5
SK-OV-3 = test system: SK-OV-3
SN12C = test system: SN12C
SNB-19 = test system: SNB-19
SNB-75 = test system: SNB-75
SR = test system: SR
SW-620 = test system: SW-620
T47D = test system: T47D
TK-10 = test system: TK-10
U-251 = test system: U-251
UACC-257 = test system: UACC-257
UACC-62 = test system: UACC-62
UO-31 = test system: UO-31

In the case of COc1ccc(N2C(=O)C3c4[nH]c5ccc(OCc6ccccc6)cc5c4C4CCC(c5ccccc5)CC4C3C2=O)cc1 (centres undefined), the GI50 (786-0) is reported as 2.67 µM (inactive), the GI50 (A498) is reported as 23.9 µM (inactive) and the GI50 (A549) is reported as 9.64 µM (inactive). For the same compound, the GI50 (ACHN) was 7.21 µM (inactive), the GI50 (BT-549) was 4.55 µM (inactive) and the GI50 (CAKI-1) was 8.18 µM (inactive). For the same compound, the GI50 (CCRF-CEM) was 4.2 µM (inactive), the GI50 (COLO 205) was 10.8 µM (inactive) and the GI50 (DU-145) was 8.07 µM (inactive). For the same compound, the GI50 (EKVX) was 19.6 µM (inactive), the GI50 (HCC 2998) was 4.84 µM (inactive) and the GI50 (HCT-116) was 11.1 µM (inactive). The GI50 (HCT-15) was 11.6 µM, the GI50 (HL-60) was 0.34 µM (active) and the GI50 (HOP-62) was 3.37 µM (inactive). For the same compound, the GI50 (HOP-92) was 3.08 µM (inactive), the GI50 (HT-29) was 11 µM (inactive) and the GI50 (Hs-578T) was 5.42 µM (inactive). The GI50 (IGROV-1) was 8.85 µM (inactive), the GI50 (K562) was 4.37 µM (inactive) and the GI50 (KM12) was 27 µM (inactive). The GI50 (LOX IMVI) was 15.2 µM (inactive), the GI50 (M14) was 6.78 µM (inactive) and the GI50 (MCF7) was 29.6 µM (inactive). For the same compound, the GI50 (MDA-MB-231) was 6.35 µM (inactive), the GI50 (MDA-MB-435) was 3.22 µM (inactive) and the GI50 (MDA-N) was 22.6 µM (inactive). For the same compound, the GI50 (MOLT-4) was 14.7 µM (inactive), the GI50 (Malme-3M) was 2.35 µM (inactive) and the GI50 (NCI-H226) was 19.2 µM (inactive). For the same compound, the GI50 (NCI-H23) was 9.62 µM (inactive), the GI50 (NCI-H460) was 4.74 µM (inactive) and the GI50 (NCI-H522) was 7.43 µM (inactive). The GI50 (NCI/ADR-RES) was 18.8 µM (inactive), the GI50 (OVCAR-3) was 57.9 µM (inactive) and the GI50 (OVCAR-4) was 1.19 µM (inactive). For the same compound, the GI50 (OVCAR-5) was 30.5 µM (inactive), the GI50 (OVCAR-8) was 8.91 µM (inactive) and the GI50 (PC-3) was 8.53 µM (inactive). The GI50 (RPMI-8226) was 6.61 µM (inactive), the GI50 (RXF 393) was 6.49 µM (inactive) and the GI50 (SF-268) was 6.85 µM (inactive). The GI50 (SF-295) was 11 µM (inactive), the GI50 (SF-539) was 3.01 µM (inactive) and the GI50 (SK-MEL-28) was 1.94 µM (inactive). The GI50 (SK-MEL-2) was 23.1 µM (inactive), the GI50 (SK-MEL-5) was 8.22 µM (inactive) and the GI50 (SK-OV-3) was 4.98 µM (inactive). The GI50 (SN12C) was 33.7 µM (inactive), the GI50 (SNB-19) was 11 µM (inactive) and the GI50 (SNB-75) was 7.82 µM (inactive). For the same compound, the GI50 (SR) was 2.37 µM (inactive), the GI50 (SW-620) was 2.02 µM (inactive) and the GI50 (T47D) was 7.73 µM (inactive). The GI50 (TK-10) was 7.55 µM (inactive), the GI50 (U-251) was 2.54 µM (inactive) and the GI50 (UACC-257) was 42.9 µM (inactive). The GI50 (UACC-62) was 6.95 µM (inactive) and the GI50 (UO-31) was 53.6 µM (inactive).
